The record followed here is US8921376B2, “Pyrrolopyridines useful as inhibitors of protein kinase” (Vertex Pharmaceuticals Incorporated, priority 2005, dated 2014).

SMILES strings stand for the structures.

Common to all, as to format: biochemical
One assay concerns the target T1, JAK3 (Homo sapiens, UniProt P52333).
T1 sequence (P52333 1-1124): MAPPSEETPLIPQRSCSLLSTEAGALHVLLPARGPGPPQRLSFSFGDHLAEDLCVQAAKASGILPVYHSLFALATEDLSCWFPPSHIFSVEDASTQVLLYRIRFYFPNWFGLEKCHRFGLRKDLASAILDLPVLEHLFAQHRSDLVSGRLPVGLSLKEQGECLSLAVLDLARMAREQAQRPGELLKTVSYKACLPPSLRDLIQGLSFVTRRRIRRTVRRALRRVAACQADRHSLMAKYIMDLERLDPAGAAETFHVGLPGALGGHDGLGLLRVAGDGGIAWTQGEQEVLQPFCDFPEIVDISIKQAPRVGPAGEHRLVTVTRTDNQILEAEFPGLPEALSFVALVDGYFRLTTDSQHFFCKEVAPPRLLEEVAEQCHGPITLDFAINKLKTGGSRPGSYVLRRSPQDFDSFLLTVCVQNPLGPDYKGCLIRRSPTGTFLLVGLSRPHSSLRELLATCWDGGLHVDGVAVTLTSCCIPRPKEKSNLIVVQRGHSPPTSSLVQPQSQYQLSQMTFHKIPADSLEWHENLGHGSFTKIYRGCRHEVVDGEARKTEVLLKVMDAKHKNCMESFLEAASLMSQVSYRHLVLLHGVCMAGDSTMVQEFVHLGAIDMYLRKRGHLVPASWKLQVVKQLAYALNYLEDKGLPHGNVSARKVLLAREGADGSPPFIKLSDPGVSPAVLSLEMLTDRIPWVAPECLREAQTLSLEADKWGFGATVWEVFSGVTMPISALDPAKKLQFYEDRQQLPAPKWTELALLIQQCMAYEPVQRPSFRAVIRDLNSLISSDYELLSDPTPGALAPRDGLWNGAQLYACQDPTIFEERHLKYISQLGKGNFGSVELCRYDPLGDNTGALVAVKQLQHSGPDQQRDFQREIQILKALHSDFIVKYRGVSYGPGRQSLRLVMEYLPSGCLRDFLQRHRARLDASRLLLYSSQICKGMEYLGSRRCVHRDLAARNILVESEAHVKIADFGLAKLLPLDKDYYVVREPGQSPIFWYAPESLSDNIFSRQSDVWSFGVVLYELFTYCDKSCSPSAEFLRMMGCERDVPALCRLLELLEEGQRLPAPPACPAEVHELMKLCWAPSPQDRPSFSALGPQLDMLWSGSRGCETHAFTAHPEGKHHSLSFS
Description: JAK3 inhibition assay (33P incorporation into poly(Glu)4Tyr). As to the method:
(§1) Compounds were screened for their ability to inhibit JAK using the assay shown below. Reactions were carried out in a kinase buffer containing 100 mM HEPES (pH 7.4), 1 mM DTT, 10 mM MgCl2, 25 mM NaCl, and 0.01% BSA.
(§2) Substrate concentrations in the assay were 5 μM ATP (200 μCi/μmole ATP) and 1 μM poly(Glu)4Tyr. Reactions were carried out at 25° C. and 1 nM JAK3.
(§3) To each well of a 96 well polycarbonate plate was added 1.5 μl of a candidate JAK3 inhibitor along with 50/1 of kinase buffer containing 2 μM poly(Glu)4Tyr and 10 μM ATP. This was then mixed and 50 μl of kinase buffer containing 2 nM JAK3 enzyme was added to start the reaction. After 20 minutes at room temperature (25 C), the reaction was stopped with 50 μl of 20% trichloroacetic acid (TCA) that also contained 0.4 mM ATP. The entire contents of each well were then transferred to a 96 well glass fiber filter plate using a TomTek Cell Harvester. After washing, 60 μl of scintillation fluid was added and ^33P incorporation detected on a Perkin Elmer TopCount.

In a further assay the target is JAK2 (Homo sapiens, UniProt O60674). Description: JAK2 inhibition assay (as Example 3 with JAK-2 enzyme). As to the method: as §1, §2, §3
The assays were as described above in Example 3 except that JAK-2 enzyme was used, the final poly(Glu)4Tyr concentration was 15 μM, and final ATP concentration was 12 μM.

A further assay concerns the target ROCK I (Homo sapiens, UniProt Q13464). Description: ROCK-I inhibition assay (radioactive enzyme assay, MBP substrate). As to the method: Compounds were screened for their ability to inhibit ROCK using a standard radioactive enzyme assay. Assays were carried out in a solution containing 100 mM HEPES (pH 7.5), 10 mM MgCl2, 25 mM NaCl, 2 mM DTT, and 1.5% DMSO. Final substrate concentrations in the assay were 13 μM [γ-^33P] ATP (25 mCi ^33P ATP/mmol ATP, Perkin Elmer, Cambridge, Mass./Sigma Chemicals, St Louis, Mo.) and 27 μM Myelin Basic Protein (MBP). Final enzyme concentration in the assay was 5 nM ROCK. Assays were carried out at room temperature. 1.5 μl of DMSO stock containing serial dilutions of the compound of the present invention (concentrations ranging from 10 μM to 2.6 nM) was placed in a 96 well plate. 50 μl of Solution 1 (100 mM HEPES (pH 7.5), 10 mM MgCl2, […]) was added to the plate. The reaction was initiated by addition of 50 μl of Solution 2 (100 mM HEPES (pH 7.5), 10 mM MgCl2, 4 mM DTT, […] and 10 nM ROCK). After 2 hours the reaction was quenched with 50 μL of 30% trichloroacetic acid (TCA, Fisher) containing 9 mM ATP. Transfer of 140 μL of the quenched reaction to a glass fiber filter plate (Corning, Cat. No. 3511) was followed by washing 3 times with 5% TCA. 50 μl of Optima Gold scintillation fluid (Perkin Elmer) was added and the plates were counted on a Top Count (Perkin Elmer). After removing mean background values for all of the data points the data was fit using Prism software to obtain a Ki(app).

Setting [1] is: Table 6, enzyme inhibition data (Ki).
Setting [2] is: enzyme inhibition, Ki(app), Table 5.

Chain of JAK2 (O60674 whole entry): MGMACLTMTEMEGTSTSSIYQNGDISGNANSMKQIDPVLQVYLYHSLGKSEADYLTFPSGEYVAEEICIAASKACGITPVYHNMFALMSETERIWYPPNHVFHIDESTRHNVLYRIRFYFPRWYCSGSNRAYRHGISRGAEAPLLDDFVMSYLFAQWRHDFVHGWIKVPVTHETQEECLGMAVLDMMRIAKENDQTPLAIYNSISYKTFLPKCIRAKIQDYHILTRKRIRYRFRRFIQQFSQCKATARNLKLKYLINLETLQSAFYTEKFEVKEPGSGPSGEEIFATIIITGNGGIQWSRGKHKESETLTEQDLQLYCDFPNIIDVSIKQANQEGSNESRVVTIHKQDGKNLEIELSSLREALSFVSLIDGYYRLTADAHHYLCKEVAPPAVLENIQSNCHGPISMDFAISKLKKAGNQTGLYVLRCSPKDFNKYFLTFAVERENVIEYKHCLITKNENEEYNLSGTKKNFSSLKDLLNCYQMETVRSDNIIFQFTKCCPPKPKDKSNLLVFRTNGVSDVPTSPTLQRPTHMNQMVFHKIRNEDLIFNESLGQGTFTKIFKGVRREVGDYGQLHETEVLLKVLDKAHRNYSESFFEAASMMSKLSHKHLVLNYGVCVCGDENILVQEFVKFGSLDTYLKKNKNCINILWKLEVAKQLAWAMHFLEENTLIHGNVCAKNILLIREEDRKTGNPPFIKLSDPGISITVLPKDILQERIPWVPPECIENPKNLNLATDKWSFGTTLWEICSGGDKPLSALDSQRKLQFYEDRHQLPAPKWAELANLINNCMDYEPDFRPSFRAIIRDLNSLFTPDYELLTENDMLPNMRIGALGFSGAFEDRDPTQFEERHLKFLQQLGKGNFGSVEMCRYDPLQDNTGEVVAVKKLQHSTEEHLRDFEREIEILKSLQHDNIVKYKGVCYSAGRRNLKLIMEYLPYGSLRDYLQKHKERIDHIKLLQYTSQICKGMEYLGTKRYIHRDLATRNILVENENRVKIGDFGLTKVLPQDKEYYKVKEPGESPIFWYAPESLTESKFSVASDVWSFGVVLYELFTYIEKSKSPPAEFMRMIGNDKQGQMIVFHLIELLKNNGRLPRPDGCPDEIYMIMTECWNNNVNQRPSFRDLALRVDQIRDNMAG
Chain of ROCK I (Q13464 whole entry): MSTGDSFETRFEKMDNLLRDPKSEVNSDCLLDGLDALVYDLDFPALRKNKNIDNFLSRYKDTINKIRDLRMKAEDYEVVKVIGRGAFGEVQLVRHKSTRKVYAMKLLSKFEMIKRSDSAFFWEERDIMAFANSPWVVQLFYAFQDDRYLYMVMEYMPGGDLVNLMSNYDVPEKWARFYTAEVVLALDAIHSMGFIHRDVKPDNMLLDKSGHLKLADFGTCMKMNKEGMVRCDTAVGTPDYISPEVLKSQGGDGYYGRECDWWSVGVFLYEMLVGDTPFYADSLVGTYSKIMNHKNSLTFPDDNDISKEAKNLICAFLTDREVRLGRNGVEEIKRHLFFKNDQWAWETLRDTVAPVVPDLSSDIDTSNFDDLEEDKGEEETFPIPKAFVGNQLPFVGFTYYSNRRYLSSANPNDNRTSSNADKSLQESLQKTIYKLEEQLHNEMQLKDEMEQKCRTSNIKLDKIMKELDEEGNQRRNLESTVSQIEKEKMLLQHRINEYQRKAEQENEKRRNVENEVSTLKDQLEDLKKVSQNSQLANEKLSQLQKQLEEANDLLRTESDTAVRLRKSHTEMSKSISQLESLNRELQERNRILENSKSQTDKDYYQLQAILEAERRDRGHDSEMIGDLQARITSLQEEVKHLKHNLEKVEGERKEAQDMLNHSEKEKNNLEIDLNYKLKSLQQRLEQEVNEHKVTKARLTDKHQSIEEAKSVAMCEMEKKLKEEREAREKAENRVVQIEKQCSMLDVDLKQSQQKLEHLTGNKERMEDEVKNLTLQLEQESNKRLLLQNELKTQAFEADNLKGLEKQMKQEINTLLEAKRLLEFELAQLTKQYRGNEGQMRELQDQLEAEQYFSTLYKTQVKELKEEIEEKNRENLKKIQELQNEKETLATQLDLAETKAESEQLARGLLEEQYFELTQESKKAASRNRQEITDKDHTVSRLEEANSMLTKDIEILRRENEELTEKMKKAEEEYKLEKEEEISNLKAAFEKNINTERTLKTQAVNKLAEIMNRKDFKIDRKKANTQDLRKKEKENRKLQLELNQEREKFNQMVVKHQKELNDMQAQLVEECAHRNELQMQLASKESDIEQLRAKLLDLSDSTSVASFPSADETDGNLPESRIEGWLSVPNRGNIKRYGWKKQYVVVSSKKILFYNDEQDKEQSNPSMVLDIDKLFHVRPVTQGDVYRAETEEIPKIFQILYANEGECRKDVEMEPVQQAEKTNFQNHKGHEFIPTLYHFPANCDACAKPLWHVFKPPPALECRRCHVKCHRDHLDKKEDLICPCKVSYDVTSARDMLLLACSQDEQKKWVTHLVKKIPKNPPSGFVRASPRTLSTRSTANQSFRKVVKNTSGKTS

For the compound `CN(Cc1cccnc1)C(=O)c1cc(-c2c(Cl)cnc3[nH]ccc23)c[nH]1` [compound 354], the Ki at JAK3 (setting [1]) was below 500 nM; on JAK2 (setting [1]), below 500 nM; on ROCK I (setting [1]) it was 500 to 5000 nM.
Take `NC(=O)c1ccccc1-c1ccnc2[nH]ccc12` [compound 380]: the results for the Ki at JAK3 (setting [1]), at JAK2 (setting [1]) and at ROCK I (setting [1]) were above 5000 nM, above 5000 nM and above 4000 nM, respectively.
For `O=C(CNc1nc(-c2ccnc3[nH]ccc23)ncc1F)NCC(F)(F)F` [compound 192], the Ki on JAK3 (setting [1]) is below 500 nM; on JAK2 (setting [1]) it was 500 to 5000 nM; at ROCK I (setting [1]) it was above 4000 nM.
The matching figures for `Clc1cnc2[nH]ccc2c1N[C@@H]1CCC[C@H]1OCc1ccccc1` [compound 152]: below 500 nM, below 500 nM and below 500 nM.
Consider `c1cc(NCc2ccc3c(c2)OCO3)nc(-c2ccnc3[nH]ccc23)c1` [compound 60, N-((Benzo[d][1,3]dioxol-6-yl)methyl)-6-(1H-pyrrolo[2,3-b]pyridin-4-yl)pyridin-2-amine], for which the Ki lay within 500 to 5000 nM on JAK3 (enzyme inhibition, Table 5); 500 to 5000 nM at JAK2 (enzyme inhibition, Table 5); 500 to 5000 nM on ROCK I (setting [2]).
For `Cc1ccc(C(N)=O)cc1Nc1c(Cl)cnc2[nH]ccc12` [compound 160], the Ki at JAK3 (setting [1]) is 500 to 5000 nM; on JAK2 (setting [1]) it was 500 to 5000 nM; on ROCK I (setting [1]), above 4000 nM.
With `O=C(NCC(F)(F)F)c1ccc(-c2ccnc3[nH]ccc23)cc1` [compound 269], the Ki on JAK3 (setting [1]), on JAK2 (setting [1]) and on ROCK I (setting [1]) was below 500 nM each time.
With `N#CCCN(CC1CC1)C(=O)c1csc(-c2ccnc3[nH]ccc23)n1` [compound 409], the Ki at JAK3 (setting [1]), on JAK2 (setting [1]) and on ROCK I (setting [1]) was below 500 nM each time.
As to `O=C(Nc1ccccc1)c1cc(-c2ccnc3[nH]ccc23)c[nH]1` [compound 275], the Ki on JAK3 (setting [1]), on JAK2 (setting [1]) and at ROCK I (setting [1]) was below 500 nM throughout.
Regarding `CCN(CCC#N)C(=O)c1ccc(-c2ccnc3[nH]ccc23)s1` [compound 314], the Ki on JAK3 (setting [1]), at JAK2 (setting [1]) and at ROCK I (setting [1]) was below 500 nM throughout.
For the compound `O=C(c1csc(-c2ccnc3[nH]ccc23)n1)N(CCC(F)(F)F)CC1CC1` [compound 402], the Ki on JAK3 (setting [1]), at JAK2 (setting [1]) and at ROCK I (setting [1]) was below 500 nM in each case.
Consider `O=C(c1cc(-c2ccnc3[nH]ccc23)c[nH]1)N1CCCC1C(F)(F)F` (stereo not drawn) [compound 374], for which the Ki on JAK3 (setting [1]), on JAK2 (setting [1]) and at ROCK I (setting [1]) was below 500 nM throughout.
With `N#CCCN(Cc1cccnc1)C(=O)c1cc(-c2ccnc3[nH]ccc23)c[nH]1` [compound 299], the Ki at JAK3 (setting [1]), at JAK2 (setting [1]) and at ROCK I (setting [1]) was below 500 nM throughout.
In the case of `CC(C)NC(=O)c1cc(-c2c(Cl)cnc3[nH]ccc23)c[nH]1` [compound 280], the Ki on JAK3 (setting [1]) was below 500 nM; on JAK2 (setting [1]), below 500 nM; on ROCK I (setting [1]) it was 500 to 5000 nM.
As for `COc1ccc(OC)c(-c2ccnc3[nH]ccc23)c1` [compound 221], the Ki at JAK3 (setting [1]) is above 5000 nM; on JAK2 (setting [1]) it was above 5000 nM; on ROCK I (setting [1]), 500 to 5000 nM.
On to `CC(C)(C)OC(=O)N1CC=C(c2ccnc3[nH]ccc23)CC1` [compound 44], for which the Ki on JAK3 (enzyme inhibition, Table 5) is below 500 nM; on JAK2 (enzyme inhibition, Table 5), below 500 nM; on ROCK I (setting [2]) it was below 500 nM.
With `C#CCOC(=O)N1CC[C@@H](Nc2c(Cl)cnc3[nH]ccc23)C1` [compound 169], the Ki at JAK3 (setting [1]) is below 500 nM; at JAK2 (setting [1]), below 500 nM; on ROCK I (setting [1]) it was 500 to 5000 nM.
On to `C=CCN(CC=C)C(=O)c1ccc(-c2ccnc3[nH]ccc23)s1` [compound 315], for which the Ki on JAK3 (setting [1]), at JAK2 (setting [1]) and at ROCK I (setting [1]) was below 500 nM throughout.
For the compound `CC(=O)N1CC=C(c2ccnc3[nH]ccc23)CC1` [compound 64], the Ki on JAK3 (enzyme inhibition, Table 5) was in the range of 500 to 5000 nM; at JAK2 (enzyme inhibition, Table 5) it was 500 to 5000 nM; at ROCK I (setting [2]), 500 to 5000 nM.
Consider `O=C(CCNc1nc(-c2ccnc3[nH]ccc23)nc2ccccc12)NCC(F)(F)F` [compound 197], for which the Ki is 500 to 5000 nM at JAK3 (setting [1]), 500 to 5000 nM at JAK2 (setting [1]) and above 4000 nM at ROCK I (setting [1]).
In the case of `COC(=O)N1CC[C@H](Nc2c(Cl)cnc3[nH]ccc23)C1` [compound 166], the Ki on JAK3 (setting [1]) is 500 to 5000 nM; on JAK2 (setting [1]), below 500 nM; on ROCK I (setting [1]), above 4000 nM.
`Clc1cc(-c2ccnc3[nH]ccc23)ccn1` [compound 39, 4-(2-Chloro-pyridin-4-yl)-1H-pyrrolo[2,3-b]pyridine]: the Ki at JAK3 (enzyme inhibition, Table 5) was in the range of 500 to 5000 nM; at JAK2 (enzyme inhibition, Table 5), 500 to 5000 nM; at ROCK I (setting [2]) it was 500 to 5000 nM.
Consider `CCN(Cc1ccccc1)C(=O)c1cc(-c2ccnc3[nH]ccc23)c[nH]1` [compound 313], for which the Ki at JAK3 (setting [1]), at JAK2 (setting [1]) and on ROCK I (setting [1]) was below 500 nM throughout.
As for `C[C@H](Nc1nc(-c2ccnc3[nH]ccc23)ncc1F)C(=O)NCC(F)(F)F` [compound 121, (S)-2-(5-fluoro-2-(1H-pyrrolo[2,3b]pyridin-4-yl)pyrimidin-4-ylamino)-N-(2,2,2-trifluoroethyl)propanamide], the Ki at JAK3 (enzyme inhibition, Table 5) was below 500 nM; at JAK2 (enzyme inhibition, Table 5), 500 to 5000 nM; at ROCK I (setting [2]) it was 500 to 5000 nM.
Turning to `CCC(=O)N1CC[C@H](Nc2c(Cl)cnc3[nH]ccc23)C1` [compound 168], the Ki at JAK3 (setting [1]) was 500 to 5000 nM; on JAK2 (setting [1]), below 500 nM; on ROCK I (setting [1]) it was above 4000 nM.
For `CCOc1ccc(Cl)cc1-c1ccnc2[nH]ccc12` [compound 237] the same measures were above 5000 nM, 500 to 5000 nM and 500 to 5000 nM.
As for `CNCc1cccc(-c2ccnc3[nH]ccc23)c1` [compound 84, Methyl-[3-(1H-pyrrolo[2,3-b]pyridin-4-yl)-benzyl]-amine], the Ki at JAK3 (enzyme inhibition, Table 5) is 500 to 5000 nM; at JAK2 (enzyme inhibition, Table 5), 500 to 5000 nM; on ROCK I (setting [2]), below 500 nM.
For `CCN(Cc1ccccn1)C(=O)c1cc(-c2c(Cl)cnc3[nH]ccc23)c[nH]1` [compound 333], the Ki on JAK3 (setting [1]) was below 500 nM; on JAK2 (setting [1]) it was below 500 nM; on ROCK I (setting [1]) it was above 4000 nM.
Turning to `CC(C)(Nc1nc(-c2ccnc3[nH]ccc23)ncc1F)C(=O)NCC(F)(F)F` [compound 131], the Ki on JAK3 (enzyme inhibition, Table 5) was below 500 nM; on JAK2 (enzyme inhibition, Table 5) it was 500 to 5000 nM; at ROCK I (setting [2]) it was 500 to 5000 nM.
